# Assay results as given in patent US10035780B2, “Quinazoline scaffold based compounds, pharmaceutical compositions and methods of use thereof” (TECHNION RESEARCH & DEVELOPMENT FOUNDATION LTD., priority 2014, dated 2018).
# Entries after “also recorded” stand apart in the source; their conditions may differ.
# Legend:
# TSPO = TSPO (Homo sapiens (Human), UniProt P30536); format: binding; details: displacement of [3H]PK 11195 from TSPO
# Procedure: Briefly, the assay utilizes radioactive standard ligand [^3H] PK 11195 (1-(2-chlorophenyl)-N-methyl-N-(1-methyl-propyl)-3 isoquinolinecarboxamide), and measures the ability of the compounds of the invention to displace standard ligand in binding to TSPO. Total radioactive binding was determined by measuring the radioactivity of the radioactive ligand-receptor complex, obtained in the reaction of radioactive standard with the TSPO. Radioactive standard and the examined compound were added to the TSPO and after some incubation time the radioactivity of the resulting ligand-receptor complexes was measured with the help of a […]. This radioactivity indicates the binding of the radioactive standard to TSPO. […] This can be expressed as the half maximal inhibitory concentration (IC50), which is a measure of the effectiveness of a compound in inhibiting biological or biochemical function, in this case inhibiting binding of standard radioactive ligand binding to the TSPO. A derivative of the IC50 is the Ki, which is the calculated binding affinity of the novel compound to the TSPO.
# Binding to TSPO was evaluated using a [^3H]PK 11195 radio-assay, as described above.
# U118MG cells = assay: Protection against cell death induced by glutamate in U118MG cell culture; format: cell-based, human; details: for lethal effects of compound at high concentration: 100 μM compound alone; for lethal effects of compound at high concentration / cell death effect of glutamate at high compound concentration: halogenated vs unhalogenated analog; for protection against cell death induced by glutamate: U118MG cells, 35 mM glutamate, compound 1-100 μM; for Protection against glutamate-induced cell death: cell culture, grade in words
# Procedure: (§1) Cell cultures of various human glial type cell lines (T98G, U87MG, A172, U118MG), as well as human neuronal type cell lines SH-SY 5Y and Be(2)-C were used to test the new compounds. In addition, the rat glioma cell line C6 was used. PC12 cells originating from rats were used as another cell line displaying neuronal characteristics. The applicants also have produced, by genetic manipulation, a modified rat C6 glial cell strain and a modified human U118MG glial type cell strain, both under-expressing the TSPO, which allows to study TSPO specific effects, including of the compounds of the invention, which can be done according to methods described previously (Weisinger et al. Biochemistry. 2004; 43:12315-21; Levin et al. 2005; Zeno et al., 2009).
# The protective capabilities of the compounds of the invention and involvement of the TSPO were tested in cell culture, using cell lines of glial and neuronal type, cultured and testing according to standard methods (Kugler et al. 2008; Zeno et al. 2009; Dadon-Nachum et al. Stem Cell Rev. 2011; 7:664-71). Furthermore, primary cell cultures are also used (Banker, G. et al. Culturing Nerve Cells, 2nd Edition, The MIT Press (1998). Treatments included: (1) exposure to glutamate (35 mM), Abeta(1-42), NH4Cl, CoCl2, and nitric oxide (NO) donors, in order to mimic particular aspects of neurodegeneration; (2) treatment with the novel compounds and with traditional TSPO ligands as comparative treatment; and (3) TSPO knockdown by genetic manipulation.
# Techniques and parameters assayed are summarized here: Total protein levels (Bradford. Anal Biochem. 1976; 72:248-54); TSPO ligand binding assays (Kugler et al. 2008; Levin et al. 2005; Danovich et al. Eur Neuropsychopharmacol. 2008; 18:24-33) cell death, including apoptosis and necrosis and related molecular biological processes (Soustiel et al. Neuropathol Appl Neurobiol. 2008; 34:412-23; Soustiel et al. Exp Neurol. 2008; 214:201-8; Zeno et al. 2009); mitochondrial transmembrane potential collapse (Chelli et al. Biochem Pharmacol. 2004; 68:125-34; Kugler et al. 2008; Zeno et al., 2009; Shargorodsky et al. Apoptosis. 2012; 17:647-65), reactive oxygen species (ROS) generation as a measure of oxidative stress (Veenman et al. 2008; Zeno et al. 2009); TSPO knockdown (Levin et al. 2005; Zeno et al. 2009); expression levels of mitochondrial TSPO and associated proteins (Veenman et al. 2002; Levin et al. 2005; Veenman et al. 2008); gene expression with RT-PCR and microarray analysis (Bode et al. 2012; Veenman et al. 2012). Parameters of inflammation, immune response, migration, and the cell cycle are also tested. All these approaches can also be applied for quality control of the compounds.
# The compounds of the invention protect against cell death induced by glutamate in cell culture of U118MG cells of astrocytic origin (FIGS. 1, 2, 3 and 8) or SH SY 6Y cells of neuronal origin (FIG. 4). […] In the control group, 35 mM of glutamate killed ˜60% of the cells.
# The experimental setup is explained using FIG. 8B as an example: • 1. Control: Cell death levels are taken as 0% • 2. Glu: Cell death levels induced by glutamate are over 50% • 3. […] Glu+Cpd 5: When Cpd 5 is given as a treatment to counteract cell death induced by glutamate, increasing concentrations of Cpd 5 reduce cell death levels from over 50% to less than 5%.
# R6-2 mice [1] = assay: Lifespan of R6-2 mice, transgenic model for Huntington Disease; format: in vivo, mouse; details: for effect on lifespan: daily s.c. injections 5 days a week from week 5, vs DMSO and saline
# From the text: For the assays described herein systemic injections of kainic in rats were applied and also contusion (Veenman et al. 2002; Soustiel et al. Neuropathol Appl Neurobiol. 2008; Soustiel et al. Exp Neurol. 2008). These models present very well defined cell death in the brain. Cell death in the brain is the major pathological characteristic of progressing neurodegeneration common to brain diseases. As the compounds of the present invention are designed to prevent cell death in the brain as a consequence of disease and progressing brain damage after injury, including behavioral impairments, animal models displaying cell death in the brain are the models of choice for displaying the protective capabilities of the compounds of the invention. For these reasons the R6-2 model for Huntington Disease was chosen to test the effectiveness of Compound 1 and to compare the effectiveness of Compound 1 with those of the compound of U.S. Pat. No. 8,541,428 (Cpd A) and with the classical TSPO ligand PK 11195, as well as other compounds disclosed herein. Compounds 5 and 6 were also tested in the same R6-2 model.
# R6-2 is a transgenic mouse model for Huntington Disease. Huntington Disease in humans is a hereditary neurodegenerative disease affecting motor performance and finally leading to death of the patients having the disease. R6-2 mice (˜120 CAG repeats B6CBA-Tg(HDexon1)62 Gpb/3J) mice were used for the experiments described below. For this purpose, mice obtained from the Jackson Laboratory (ME) were bred. In particular: males genotype: Hemizygous for Tg(HDexon1)62 Gpb, and females from the wildtype background strain B6CBAF1/J were bred according to the protocol of Jackson Laboratory. The male heterozygote offspring (R6-2 mice) were used for determining life span and motor activity, with and without drug treatment. Drug treatment consisted of daily (5 continuous days a week) subcutaneous injections of mice with 20 μl of: saline (sham control), vehicle DMSO (vehicle control), classic TSPO ligand PK 11195 (15 mg/kg), prior art Compound A (15 mg/kg), Compound 1 (15 mg/kg), and compound 1 (7.5 mg/kg). Drug treatment started on week 5 after birth. Quantities were used according to previous studies regarding TSPO ligands.
# (§2) Apart from the behavioral experiments, mice were observed daily, and the day of death was noted. Behavioral experiments included distance covered in an open field apparatus, and tremor measurements.
# R6-2 mice were used as previously described in Example 5. In one experiment, treatment consisted of daily (5 continuous days per week) subcutaneous injections of mice with 20 μl of vehicle DMSO (control, n=10) and Compound 6 (7.5 mg/kg, n=12). In a separate experiment, compound 5 (7.5 mg/kg, n=5) was tested, compared to DMSO control (n=5).
# R6-2 mice [2] = assay: Incidence of tremor in R6-2 mice; format: in vivo, mouse
# From the text: as §2
# To assay incidence of tremor in R6-2 mice of the experiments for this invention, the StartleMonitor of Kinder Scientific (Poway, Calif.), with specific software to assay and present force pressure changes in newtons, was used.
# SH SY 6Y cells = assay: Protection of SH SY 6Y neuronal cells against lethal effects of glutamate; format: cell-based, human
# Procedure: as §1
# The protective capabilities of the compounds of the invention and involvement of the TSPO were tested in cell culture, using cell lines of glial and neuronal type, cultured and testing according to standard methods (Kugler et al. 2008; Zeno et al. 2009; Dadon-Nachum et al. Stem Cell Rev. 2011; 7:664-71). […]
# TSPO, sequence (P30536 whole entry): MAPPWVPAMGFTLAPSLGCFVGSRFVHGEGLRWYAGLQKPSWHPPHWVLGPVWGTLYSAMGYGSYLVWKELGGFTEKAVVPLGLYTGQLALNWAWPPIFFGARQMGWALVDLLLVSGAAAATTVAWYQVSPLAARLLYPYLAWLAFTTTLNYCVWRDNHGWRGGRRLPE
Compound,Ki (TSPO) [nM],lethal effects of compound at high concentration (U118MG cells),protection against cell death induced by glutamate (U118MG cells),protection against cell death induced by glutamate (U118MG cells; listed as Cpd 5),Protection against glutamate-induced cell death (U118MG cells),"cell death levels induced by compound by itself (U118MG cells; compound alone, no glutamate) [%]",cell death effect of glutamate at high compound concentration (U118MG cells; glutamate plus 100 μM compound),"cell death levels, Glu + compound (U118MG cells; glutamate plus increasing concentrations of compound, glutamate alone over 50%)",mice living up to 18 weeks (R6-2 mice [1]; 7.5 mg/kg s.c.) [%],"mice still alive at 11th week (R6-2 mice [1]; 7.5 mg/kg s.c., >50% of DMSO mice dead) [%]","mice still alive at 12 weeks (R6-2 mice [1]; 7.5 mg/kg s.c., all DMSO mice dead) [%]",effect on lifespan (R6-2 mice [1]),effect on lifespan (R6-2 mice [1]; listed as compound 5),incidence of tremor activity (R6-2 mice [2]),protection against lethal effects of glutamate (SH SY 6Y cells),lethal effects of compound at high concentration (U118MG cells; listed as Cpd 6),protection against cell death induced by glutamate (U118MG cells; listed as compound 6),"cells killed by glutamate (U118MG cells; glutamate plus 100 μM compound, glutamate alone kills 50-60%) [%]","week until which 50% of the mice were still alive (R6-2 mice [1]; 7.5 mg/kg s.c., 50% of DMSO mice died before 10th week) [week]",effect on lifespan (R6-2 mice [1]; listed as compound 6)
"CN(C)C(=O)Oc1nc(-c2ccccc2Cl)nc2ccccc12 [Compound 5, 2-(2-chlorophenyl)quinazolin-4-yl dimethylcarbamate]",~600,reduces lethal effects; also recorded: reduces cell death effects; also recorded: least adverse side effects,protect better and more consistently; also recorded: superior over the rest of the compounds,improves protection,Excellent,≤ 5,reduces cell death effect of glutamate in cultures even further,less than 5%,20,100,50,increase the average lifespan; also recorded: extends the life span,robust lifespan enhancing,tremor reducing effects; also recorded: reduced the incidence of tremor activity,–,–,–,–,–,–
"CCN(CC)C(=O)Oc1nc(-c2ccc(Br)cc2)nc2ccccc12 [Compound 4, 2-(4-bromophenyl)quinazolin-4-yl diethylcarbamate]",~45,–,–,–,Good,–,–,–,–,–,–,–,–,–,protects neuronal cells,–,–,–,–,–
"CCN(C)C(=O)Oc1nc(-c2ccccc2Cl)nc2ccccc12 [Compound 6, 2-(2-chlorophenyl)quinazolin-4-yl ethyl(methyl)carbamate]",~60,reduces lethal effects,protect better and more consistently; also recorded: improves protection,–,Excellent,–,reduces cell death effect of glutamate in cultures even further,–,–,–,–,increase the average lifespan; also recorded: extends the life span,–,tremor reducing effects; also recorded: reduced the incidence of tremor activity,–,reduces cell death effects,superior over compound 1,5,12,robust lifespan enhancing
